Results on two molecules are retold here after publication PMC8786778 (Pharmacological reports : PR, 2021).

Holding throughout (assay type): cell-based
The subject of one series is MDA-MB-231. As to the kind of experiment: Differential nuclear staining (DNS) cytotoxicity assay. To be noted: Homo sapiens, MDA-MB-231, 48 h.
The subject of another series is CCRF-CEM. The series is described as above. The settings on record: Homo sapiens, CCRF-CEM, 48 h.
The test system of the next series is COLO 205. Described as above. To be noted: Homo sapiens, COLO 205, 48 h.
The subject of another series is HT-29. The series is described as above. To be noted: Homo sapiens, HT-29, 48 h.
Another series concerns KCL22. The description is as above. The settings on record: Homo sapiens.
Another series concerns Ramos. The series is described as above. To be noted: Homo sapiens, Ramos, 48 h.
The next series relates to HL-60. Described as above. To be noted: for CC50: Homo sapiens.
The subject of series [1] is nine tumorigenic cell lines. Kind of series: DNS assay, summary over the cancer cell line panel. The settings on record: for CC50: 48 h, read-out: average CC50 towards the nine tumorigenic cell lines.
Description: Several cancer and non-cancerous cell lines were used for this analysis. […] Additionally, all media used for cell culture was supplemented with 10% heat-inactivated fetal bovine serum (FBS), and a mixture of 25 μg/ml amphotericin B, 1,000 U/ml penicillin, and 1,000 μg/ml streptomycin. […] All cell lines were grown in an incubator supplemented with 5% CO2 at 37 °C.
Cytotoxic activity was evaluated through the DNS assay [17, 18]. […] For the experiment, each cell line was plated at a density of 10,000 cells per well (96-well plate) in 100 μl media and placed in the incubator overnight under cell culture conditions. Cells were then treated with varying concentrations of the compound of interest for 48 h. […] The IN Cell 2000 analyzer, a high-content analyzer (HCA), was used to image the plates (GE Healthcare). For quantitative analysis, images were segmented through the IN Cell Analyzer Workstation 3.2 software (GE Healthcare). […] Each compound concentration and each control were assessed in triplicate.
The next series concerns Jurkat. As to the kind of experiment: Differential nuclear staining (DNS) cytotoxicity assay. To be noted: Homo sapiens, Jurkat, 48 h.
Another series concerns K562. The series is described as above. To be noted: Homo sapiens, K562, 48 h.
Series [2] concerns HL-60 cells. As to the kind of experiment: Reactive oxygen species (ROS) assay (carboxy-H2DCFDA). The settings on record: HL-60, 18 h.
Description: Reactive oxygen species (ROS) generation can be quantified using the 6-carboxy-2',7'-dichlorodihydrofluorescein diacetate (carboxy-H2DCFDA) dye (Invitrogen; Molecular Probes, C400) [19, 22]. This non-fluorescent dye shifts to a green fluorescent form as oxidation, induced by ROS, occurs within the cell. Therefore, a green fluorescent signal, corresponding to the oxidized form of carboxy-H2DCFDA, indicates ROS generation. Cells (HL-60) were plated overnight at a density of 100,000 cells in 1 ml. […] Samples were collected, centrifuged at 262g for 5 min, and re-suspended in 1 ml PBS to remove the complete medium. Then, cells were loaded with a final concentration of 10 μM carboxy-H2DCFDA dye for 45 min at 37 °C. Following incubation with dye, cells were centrifuged at 262g for 5 min and re-suspended in 500 μl PBS. Then, samples were processed using flow cytometry (Gallios; Beckman Coulter). Data analysis was completed with the Kaluza software (Kaluza Analysis Software; Beckman Coulter). Controls used were the same as mentioned before (0.1% v/v DMSO, 1 mM H2O2, and untreated cells) with an additional unstained (not loaded with dye) control to observe the normal population of cells.
Series [3] concerns HL-60 cells. Kind of series: Cell cycle analysis with NIM-DAPI. The settings on record: HL-60, 72 h.
Description: Controls included were a vehicle (0.1% v/v DMSO), positive (1 mM H2O2), and negative (untreated cells) control. Subsequently, cells were collected in flow cytometry tubes and centrifuged at 262g for 5 min. Then, the supernatant was removed, and the cell pellet was re-suspended in a mixture of 100 μl of PBS and 200 μl of NIM-DAPI. Samples were immediately read and analyzed through flow cytometry (Gallios & Kaluza Analysis Software; Beckman Coulter). Approximately 10,000 events were acquired per sample. Data are represented as plots that display peaks (Fig. 6e) which represent fragments of DNA (Sub-G0/1 phase), cells before they replicate DNA (G0/1 phase), active replication of DNA (S phase), and post-replicative stage while entering mitosis (G2M phase) [23].
Series [4] is described as follows: Differential nuclear staining (DNS) cytotoxicity assay. To be noted: human; CC50 MCF-10A / CC50 MDA-MB-231; read-out: SCI (Selective Cytotoxicity Index).
Excerpt: (§1) All cell lines were obtained commercially from ATCC (American Type Culture Collection). Several cancer and non-cancerous cell lines were used for this analysis. […] Solid tumor cancer cell lines included MDA-MB-231 (Adenocarcinoma; HTB-26) cultured in DMEM medium, HT-29 (Colorectal Adenocarcinoma; HTB-38) cultured in McCoy’s 5A medium, and COLO 205 (Colorectal Adenocarcinoma; CCL-222) cultured in RPMI-1640 medium. Non-cancerous cell lines included Hs27 (No disease, foreskin; CRL-1634) cultured in DMEM medium and MCF-10A (Fibrocystic Disease; CRL-10317) cultured in DMEM/F12 medium supplemented with 20 ng/ml epidermal growth factor, 0.5 μg/ml hydrocortisone, and 10 μg/ml insulin. Additionally, all media used for cell culture was supplemented with 10% heat-inactivated fetal bovine serum (FBS), and a mixture of 25 μg/ml amphotericin B, 1,000 U/ml penicillin, and 1,000 μg/ml streptomycin. […] All cell lines were grown in an incubator supplemented with 5% CO2 at 37 °C.
(§2) Cytotoxic activity was evaluated through the DNS assay [17, 18]. This assay involves labeling live and dead cells with two nucleic acid intercalators, Hoechst 33342 and propidium iodide (PI). Hoechst 33342 stains all cells (healthy and dead), but PI stains only dead or dying cells with a compromised cell membrane [17, 18]. For the experiment, each cell line was plated at a density of 10,000 cells per well (96-well plate) in 100 μl media and placed in the incubator overnight under cell culture conditions. Cells were then treated with varying concentrations of the compound of interest for 48 h. Two hours before incubation elapsed, 10 μl of a dye mixture consisting of phosphate-buffered saline (PBS), Hoechst 33342 (1 μg/ml final; Invitrogen, H1399), and PI (1 μg/ml final; Invitrogen, P1304MP) was added to each well. […] For quantitative analysis, images were segmented through the IN Cell Analyzer Workstation 3.2 software (GE Healthcare). […] Each compound concentration and each control were assessed in triplicate. […] SCI was calculated using the following equation: CC50 of the non-cancer cell line/CC50 of the cancer cell line [20].
The subject of series [5] is HL-60 cells. Kind of series: Mitochondrial membrane potential (ΔΨm) polychromatic assay (JC-1). The settings on record: HL-60, 5 h, 4 μM.
Description: The cationic JC-1 (5′,6,6′-tetrachloro-1,1′,3,3′-tetraethylben zimidazolylcarbocyanine iodide) dye can be used to monitor mitochondrial membrane potential (Invitrogen; M34152). A red signal (JC-1 aggregates) indicates an intact polarized mitochondrial membrane, while a green signal (JC-1 monomers) indicates a depolarized mitochondrial membrane. […] A vehicle, positive, and negative control (as previously described) were included as well. Following incubation, cells were collected and stained per the manufacturer’s instructions with a final concentration of 2 μM JC-1 dye. Samples were then examined utilizing flow cytometry (Gallios; Beckman Coulter). Analysis of the subsequent data was completed using Kaluza software (Kaluza Analysis Software; Beckman Coulter).
The next series has as its system PMAIP1 in HL-60 cells. Kind of series: RT-qPCR gene expression. The settings on record: HL-60, 6 h, P3 […], P4 4 μM, P5 4 μM, normalised to ACTB, 2^−ΔΔCt. (In general: In qPCR the cycle at which signal appears reflects the starting amount.)
Series [6] is described as follows: Differential nuclear staining (DNS) cytotoxicity assay. To be noted: human, Hs27 cells (non-cancerous) versus CCRF-CEM cells (cancer); CC50 Hs27 / CC50 CCRF-CEM; read-out: SCI (Selective Cytotoxicity Index).
Excerpt: as §1, §2
Assay in series [7]: as above
Excerpt: as §1, §2
The settings on record: human, Hs27 cells (non-cancerous) versus COLO 205 cells (cancer); CC50 Hs27 / CC50 COLO 205; read-out: SCI (Selective Cytotoxicity Index).

Assay in series [8]: as above
Excerpt: as §1, §2
To be noted: human, Hs27 cells (non-cancerous) versus HT-29 cells (cancer); CC50 Hs27 / CC50 HT-29; read-out: SCI (Selective Cytotoxicity Index).

A short description of series [9]: DNS assay, summary over the non-cancerous cell lines. To be noted: human, Hs27 and MCF-10A non-cancerous cells, mean of two non-cancerous cell lines, read-out: average CC50 towards Hs27 and MCF-10A.
Excerpt: (§3) All cell lines were obtained commercially from ATCC (American Type Culture Collection). Several cancer and non-cancerous cell lines were used for this analysis. […] Solid tumor cancer cell lines included MDA-MB-231 (Adenocarcinoma; HTB-26) cultured in DMEM medium, HT-29 (Colorectal Adenocarcinoma; HTB-38) cultured in McCoy’s 5A medium, and COLO 205 (Colorectal Adenocarcinoma; CCL-222) cultured in RPMI-1640 medium. Non-cancerous cell lines included Hs27 (No disease, foreskin; CRL-1634) cultured in DMEM medium and MCF-10A (Fibrocystic Disease; CRL-10317) cultured in DMEM/F12 medium supplemented with 20 ng/ml epidermal growth factor, 0.5 μg/ml hydrocortisone, and 10 μg/ml insulin. Additionally, all media used for cell culture was supplemented with 10% heat-inactivated fetal bovine serum (FBS), and a mixture of 25 μg/ml amphotericin B, 1,000 U/ml penicillin, and 1,000 μg/ml streptomycin. The HL-60 cell line was supplemented with 20% FBS and the same antibiotic mixture described. […]
(§4) Cytotoxic activity was evaluated through the DNS assay [17, 18]. […] For quantitative analysis, images were segmented through the IN Cell Analyzer Workstation 3.2 software (GE Healthcare). […] Each compound concentration and each control were assessed in triplicate. […] SCI was calculated using the following equation: CC50 of the non-cancer cell line/CC50 of the cancer cell line [20].
A short description of series [10]: Differential nuclear staining (DNS) cytotoxicity assay. The settings on record: human, Hs27 non-cancerous cells.
Excerpt: as §3, §4
Assay in series [11]: as above
Excerpt: (§5) All cell lines were obtained commercially from ATCC (American Type Culture Collection). Several cancer and non-cancerous cell lines were used for this analysis. […] Solid tumor cancer cell lines included MDA-MB-231 (Adenocarcinoma; HTB-26) cultured in DMEM medium, HT-29 (Colorectal Adenocarcinoma; HTB-38) cultured in McCoy’s 5A medium, and COLO 205 (Colorectal Adenocarcinoma; CCL-222) cultured in RPMI-1640 medium. Non-cancerous cell lines included Hs27 (No disease, foreskin; CRL-1634) cultured in DMEM medium and MCF-10A (Fibrocystic Disease; CRL-10317) cultured in DMEM/F12 medium supplemented with 20 ng/ml epidermal growth factor, 0.5 μg/ml hydrocortisone, and 10 μg/ml insulin. Additionally, all media used for cell culture was supplemented with 10% heat-inactivated fetal bovine serum (FBS), and a mixture of 25 μg/ml amphotericin B, 1,000 U/ml penicillin, and 1,000 μg/ml streptomycin. The HL-60 cell line was supplemented with 20% FBS and the same antibiotic mixture described. All cell lines were grown in an incubator supplemented with 5% CO2 at 37 °C.
Cytotoxic activity was evaluated through the DNS assay [17, 18]. […] For quantitative analysis, images were segmented through the IN Cell Analyzer Workstation 3.2 software (GE Healthcare). […] Each compound concentration and each control were assessed in triplicate.
The settings on record: human, MCF-10A non-cancerous cells.

Assay in series [12]: as above
Excerpt: as §5
(§6) Cytotoxic activity was evaluated through the DNS assay [17, 18]. This assay involves labeling live and dead cells with two nucleic acid intercalators, Hoechst 33342 and propidium iodide (PI). Hoechst 33342 stains all cells (healthy and dead), but PI stains only dead or dying cells with a compromised cell membrane [17, 18]. For the experiment, each cell line was plated at a density of 10,000 cells per well (96-well plate) in 100 μl media and placed in the incubator overnight under cell culture conditions. Cells were then treated with varying concentrations of the compound of interest for 48 h. […] For quantitative analysis, images were segmented through the IN Cell Analyzer Workstation 3.2 software (GE Healthcare). […] Each compound concentration and each control were assessed in triplicate. […] SCI was calculated using the following equation: CC50 of the non-cancer cell line/CC50 of the cancer cell line [20].
To be noted: human, Hs27 cells (non-cancerous) versus KCL22 cells (cancer); CC50 Hs27 / CC50 KCL22; read-out: SCI (Selective Cytotoxicity Index).

The test system of the next series is ATF3 in HL-60 cells. As to the kind of experiment: RT-qPCR gene expression. To be noted: HL-60, 6 h, P3 […], P4 4 μM, P5 4 μM, normalised to ACTB, 2^−ΔΔCt.
Another series concerns HMOX-1 in HL-60 cells. As to the kind of experiment: RT-qPCR gene expression. The settings on record: HL-60, 6 h, P3 […], P4 4 μM, P5 4 μM, normalised to ACTB, 2^−ΔΔCt, two independent experiments.
Series [13] concerns caspase-3 activation in HL-60 cells. Kind of series: Caspase-3 assay (NucView 488). To be noted: HL-60, 8 h; concentration not given.
Series [14] is described as follows: Differential nuclear staining (DNS) cytotoxicity assay. The settings on record: human, Hs27 cells (non-cancerous) versus Ramos cells (cancer); CC50 Hs27 / CC50 Ramos; read-out: SCI (Selective Cytotoxicity Index).
Excerpt: as §1, §2
The test system of a further series is MYC in HL-60 cells. Kind of series: RT-qPCR gene expression. To be noted: HL-60, 6 h, P3 […], P4 4 μM, P5 4 μM, normalised to ACTB, 2^−ΔΔCt.
Series [15] can be described thus: Differential nuclear staining (DNS) cytotoxicity assay. To be noted: human, Hs27 cells (non-cancerous) versus HL-60 cells (cancer); CC50 Hs27 / CC50 HL-60; read-out: SCI (Selective Cytotoxicity Index).
Description: All cell lines were obtained commercially from ATCC (American Type Culture Collection). Several cancer and non-cancerous cell lines were used for this analysis. […] Non-cancerous cell lines included Hs27 (No disease, foreskin; CRL-1634) cultured in DMEM medium and MCF-10A (Fibrocystic Disease; CRL-10317) cultured in DMEM/F12 medium supplemented with 20 ng/ml epidermal growth factor, 0.5 μg/ml hydrocortisone, and 10 μg/ml insulin. Additionally, all media used for cell culture was supplemented with 10% heat-inactivated fetal bovine serum (FBS), and a mixture of 25 μg/ml amphotericin B, 1,000 U/ml penicillin, and 1,000 μg/ml streptomycin. The HL-60 cell line was supplemented with 20% FBS and the same antibiotic mixture described. All cell lines were grown in an incubator supplemented with 5% CO2 at 37 °C.
Cytotoxic activity was evaluated through the DNS assay [17, 18]. This assay involves labeling live and dead cells with two nucleic acid intercalators, Hoechst 33342 and propidium iodide (PI). Hoechst 33342 stains all cells (healthy and dead), but PI stains only dead or dying cells with a compromised cell membrane [17, 18]. For the experiment, each cell line was plated at a density of 10,000 cells per well (96-well plate) in 100 μl media and placed in the incubator overnight under cell culture conditions. Cells were then treated with varying concentrations of the compound of interest for 48 h. Two hours before incubation elapsed, 10 μl of a dye mixture consisting of phosphate-buffered saline (PBS), Hoechst 33342 (1 μg/ml final; Invitrogen, H1399), and PI (1 μg/ml final; Invitrogen, P1304MP) was added to each well. The IN Cell 2000 analyzer, a high-content analyzer (HCA), was used to image the plates (GE Healthcare). For quantitative analysis, images were segmented through the IN Cell Analyzer Workstation 3.2 software (GE Healthcare). […] Each compound concentration and each control were assessed in triplicate.
For the experiments conducted, the concentrations used correspond to either CC50 or CC50 × 2 in the specified cell line. […] Therefore, we used a CC10 and a CC30 concentration.
A further series relates to CHAC1 in HL-60 cells. Kind of series: RT-qPCR gene expression. The settings on record: HL-60, 6 h, P3 […], P4 4 μM, P5 4 μM, normalised to ACTB, 2^−ΔΔCt.
For series [16], the system named is HL-60 cells. Kind of series: Annexin V-FITC assay (phosphatidylserine externalization). To be noted: HL-60, 24 h, CC50 concentration (P3 […], P4 2 μM, P5 2 μM).
Description: The annexin V-FITC assay was used to evaluate the induction of apoptosis (Beckman Coulter; IM3546) [21]. HL-60 cells were seeded at a density of 100,000 cells in 1 ml complete medium. Cells were treated with the three compounds of interest for 24 h. […] Controls used were a vehicle control (0.1% v/v DMSO), an apoptosis-inducing positive control (1 mM H2O2), and an untreated cell negative control. Following treatment, cells were collected and stained with both PI and annexin V-FITC according to the manufacturer’s instructions (Beckman Coulter; IM3546). Samples were immediately read by flow cytometry (Gallios; Beckman Coulter). Data analysis was accomplished with Kaluza software (Kaluza Analysis Software; Beckman Coulter).
Series [17] can be described thus: Differential nuclear staining (DNS) cytotoxicity assay. To be noted: human, Hs27 cells (non-cancerous) versus Jurkat cells (cancer); CC50 Hs27 / CC50 Jurkat; read-out: SCI (Selective Cytotoxicity Index).
Excerpt: as §5, §6
Assay in series [18]: as above
Excerpt: as §5, §6
The settings on record: human, Hs27 cells (non-cancerous) versus K562 cells (cancer); CC50 Hs27 / CC50 K562; read-out: SCI (Selective Cytotoxicity Index).

The mark [19] stands for this setting: HL-60, concentration used for 72 h cell cycle analysis.

Where two headings read alike, the source gives them in different places.

Description for ATF3 in HL-60 cells: (§7) After the incubation period elapsed, cell pellets were washed by centrifuging at 262g for 5 min and re-suspending in 1 ml of PBS. Dry cell pellets were used for RNA extraction. RNA was extracted immediately according to the manufacturer’s instructions of the RNeasy Mini Kit (Qiagen; 74104). A QIAshredder was used to lyse the cells, and the optional DNase I digestion was also accomplished. Three biological replicates were used for each treatment. RNA was stored at −80 °C overnight, then the RNA was used to synthesize cDNA using the RT^2 HT First Strand Kit (Qiagen; 330,411). The amount of RNA used per sample was 500 ng, which was quantified using a NanoDrop ND-1000 system (ThermoFisher Scientific). RNA was diluted using RNase-free water to obtain the desired concentration (500 ng) in 9 μl. As per the manufacturer’s protocol, we incubated 9 μl of the sample with 6 μl GE2 (gDNA elimination buffer) for 5 min at 37 °C, then we added 6 μl BC4 Reverse Transcriptase Mix and incubated for 15 min at 42 °C, 5 min at 95 °C and, finally, a 4 °C hold. […] For data analysis, gene expression levels were normalized to the housekeeping gene (ACTB) and quantified using the comparative Ct method (2^−ΔΔCt). Fold change differences were calculated by comparing gene expression levels of compound treatment versus vehicle control.
Excerpt for CCRF-CEM: as §1, §2
Description for CHAC1 in HL-60 cells: as §7
Excerpt for COLO 205: as §1, §2
Description for HMOX-1 in HL-60 cells: as §7
Excerpt for HT-29: as §1, §2
Excerpt for Jurkat: as §5, §6
Excerpt for K562: as §5, §6
Excerpt for KCL22: as §5, §6
Excerpt for MDA-MB-231: as §1, §2
Description for MYC in HL-60 cells: as §7
Description for PMAIP1 in HL-60 cells: as §7
Excerpt for Ramos: as §1, §2

`N[C@@H](Cc1ccc(N(CCCl)CCCl)cc1)C(=O)O` [Melphalan, reference compound]: the CC50 in the series on MDA-MB-231 worked out at 9230 nM; with CCRF-CEM, 3170 nM; in the series with COLO 205 it was 20400 nM; in the series on HT-29, 21100 nM; in the series on KCL22 (KCL-22, 48 h), 81300 nM; in the series on Ramos, 2050 nM. Further, the CC50 with HL-60 (HL-60, 48 h) came to 1570 nM; in [1], 17800 nM; with Jurkat it was 1910 nM; with K562, 19600 nM.

On to `O=C1/C(=C/c2ccc(O)c(CN3CCOCC3)c2)CNC/C1=C\c1ccc(O)c(CN2CCOCC2)c1` [P5], for which the “increase of cells positive for ROS production compared to DMSO” value in the series on HL-60 cells [2] (P3 […], P4 2 μM, P5 2 μM) was ~ 38%; in the series with HL-60 cells [2] (twice the concentration (P3 […], P4 4 μM, P5 4 μM)), ~ 65%. In addition, the “increase in the percentage of cells arrested at the G2/M phase versus DMSO” value in the series with HL-60 cells [3] (0.4 μM) is on record as ~ 9%. In addition, the “change in the percentage of cells in the S phase compared to DMSO” value in the series with HL-60 cells [3] (printed as double the CC50 concentration) is given as “significant decrease”. The CC50 with MDA-MB-231 (DNS assay, read-out: CC50) came out at 1740 nM; in the series on CCRF-CEM (DNS assay, read-out: CC50), 650 nM; with COLO 205 (DNS assay, read-out: CC50) it was 800 nM; with HT-29 (DNS assay, read-out: CC50) it was 1930 nM; in the series on KCL22 (KCL-22, KCL22, 48 h, DNS assay, read-out: CC50), 1570 nM; in the series with Ramos (DNS assay, read-out: CC50), 1060 nM. In addition, the CC50 with HL-60 (HL-60, 48 h, DNS assay, read-out: CC50) was 740 nM; in the series with HL-60 (HL-60, value used to set treatment concentrations, read-out: CC50 in HL-60 (concentrations for cell death induction)), 2000 nM; in series [1] (DNS assay, mean over nine cell lines) it was 1520 nM; in the series on Jurkat (DNS assay, read-out: CC50), 910 nM; with K562 (DNS assay, read-out: CC50) it was 4250 nM. For the same molecule, the selectivity ratio at 48 h turned out to be 1.26 in [4]; 8.42 in [6]; 6.87 in [7]; 2.85 in series [8]; 3.49 in series [12]; 5.19 in [14]. Moreover, the values for the selectivity ratio at 48 h in series [15], in series [17] and in series [18] were 7.47, 6.05 and 1.29, respectively. Besides, the “increase in the cell population with a depolarized mitochondrial membrane in comparison to DMSO” value with HL-60 cells [5] is on record as ~ 10%. Further, the “fold-change difference of PMAIP1 expression versus vehicle” value with PMAIP1 in HL-60 cells is on record as 79.50. Also, the CC50 at 48 h came out at 3840 nM in series [9], 5500 nM in series [10] and 2180 nM in series [11]. Further, in the series on ATF3 in HL-60 cells, the “fold-change difference of ATF3 expression versus vehicle” value was determined as 204.56. Besides, in the series on HMOX-1 in HL-60 cells, the “fold-change difference of HMOX-1 expression versus vehicle” value amounted to 2464.89. For the same molecule, in series [13], the “cells with active caspase-3, as compared to DMSO” value is ~ 49%. The “fold-change difference of MYC expression versus vehicle” value with MYC in HL-60 cells was −4.15. The molecule further displayed a CC10 with HL-60 (setting [19]) of 400 nM. The molecule also had a CC30 in the series on HL-60 (setting [19]) of 1200 nM. The “fold-change difference of CHAC1 expression versus vehicle” value with CHAC1 in HL-60 cells amounted to 106.96. Moreover, in series [1] (ratio of average CC50 values, nine tumorigenic cell lines), the “times more potent than melphalan” value is listed as 11.7. The “increase of Annexin V-FITC-positive cells in comparison to DMSO” value with HL-60 cells [16] is ~ 30%.
